Results as given in patent US20250099430A1, “PREVENTION OR TREATMENT OF SLEEP DISORDERS USING DEXMEDETOMIDINE FORMULATION” (BioXcel Therapeutics, Inc., priority 2014, published 2025).
Where “and” joins values, the source holds several entries; their conditions need not be identical. Equal entries are not always repeated. Entries after “also recorded” stand apart in the source; their conditions may differ.

Test system: Wistar rats
Test: Sleep promoting properties in Wistar rats, video monitoring of home cage activity (total sleep time, latency to sleep, number of sleep episodes)
Type: in vivo
Settings: for Total Sleep time: 180 min recording
Experimental: Sublingual dexmedetomidine formulation of present invention was tested in rats for its ability to increase the amount of sleep or decrease sleep interruption or both without undesired effects. Test animals' activity was continuously monitored by using a video camera overhead and data analysed for latency of sleep, total sleep time and number of sleep episodes by using the NoldusEthovision-XT 11.
Male Wistar rats were approximately of the weight 180 g-220 g and age of about 5-7 weeks old. Animals were numbered and kept in acclimatization for a period of 5-7 days before the initiation of the experiment. All the experiments on animals were conducted in accordance with the guidelines of the Committee for the Purpose of Control and Supervision of Experiments on Animals (CPCSEA), Goveemment of India the Association for Assessment and Accreditation of Laboratory Animal Care intemational (AAALAC).
Recording Environment: Animals were housed group wise (three animals per cage) within a microisolator cage modified with an inserted polycarbonate filter-top riser to allow more vertical headroom. Animals were maintained on the normal rodent chow ad libitum and given free access to fresh autoclaved potable drinking water. Animals were kept in a controlled environmental condition with 22±3° C. temperature, 50±20% humidity, a light dark cycle of 12 hours each and 15-20 fresh air changes per hour.
Animal Groups: Wistar rats were randomly divided into different groups, each containing 6 animals. The study groups were divided as normal control group, vehicle control group, test compound groups and reference compound group.
Animals were weight once at randomization and each day thereafter. The animals were studied from day 1 till day 9. […] On day 3, animals were dosed with test compounds and respiratory parameters such as tidal volume, frequency of respiration: heart rate and blood pressure were recorded. On day 5 and day 6, animals were trained on the rotarod apparatus (4-40 rpm for 300 s). On day 7, animals were administered with test compounds and motor coordination was tested on rotarod at 3, 10, 17, 24 and 30 minutes post administration to establish a temporal scale of loss of motor activity and drowsiness. On day 9, animals were dosed with test compounds and blood was collected at 15, 30, 60 and 120 min post sublingual dosing to estimate plasma drug concentration of dexmedetomidine. All the animals were euthanized by CO2 inhalation on day 9. The animal in the satellite groups was dosed with test compounds and blood was collected on day 0 at 15, 30, 60, and 120 min post sublingual dosing to estimate plasma drug concentration of dexmedetomidine after first drug exposure.
The normal control group received no treatment: vehicle control group received 0.9% saline water; the test group received compound (dexmedetomidine), administered sublingually in different doses (dose 1-5.14 μg/kg of body weight, dose 2-10 μg/kg of body weight, dose 3-20 μg/kg of body weight, dose 4-30 μg/kg of body weight and dose 5-40 μg/kg of body weight) and also administered parenterally (dose 6-1.5 μg kg of body weight); and the reference compound (Zolpidem) was administered orally in dose of 30 mg/kg of body weight. The treatment was given such that no rat received the same treatment twice.
Total sleep time, latency to sleep and number of sleep episodes were measured: After administration of each dose to each group of animal, the latency to sleep, total sleep time and sleep episodes was recorded.
One way ANOVA test was applied for the comparison of the data from different groups for total sleep time, latency to sleep and number of sleep episodes.

[1] = Table 2, Zolpidem (30 mg/kg, p.o.)
[2] = group mean, Zolpidem (30 mg/kg), orally
[3] = individual animals, Zolpidem (30 mg/kg), orally
[4] = Table 2, Dose 1 (5.14 μg/kg, SL)
[5] = Table 2, Dose 6 (1.5 μg/kg, I.V.)
[6] = group mean, Dose 1 (5.14 μg/kg Dexmedetomidine SL)
[7] = group mean, Dose 2 (10 μg/kg Dexmedetomidine SL)
[8] = group mean, Dose 3 (20 μg/kg Dexmedetomidine SL)
[9] = group mean, Dose 4 (30 μg/kg Dexmedetomidine SL)
[10] = group mean, Dose 5 (40 μg/kg Dexmedetomidine SL)
[11] = group mean, Dose 6 (1.5 μg/kg Dexmedetomidine I.V.)
[12] = individual animals, Dose 1 (5.14 μg/kg Dexmedetomidine SL)
[13] = individual animals, Dose 2 (10 μg/kg Dexmedetomidine SL)
[14] = individual animals, Dose 3 (20 μg/kg Dexmedetomidine SL)
[15] = individual animals, Dose 4 (30 μg/kg Dexmedetomidine SL)
[16] = individual animals, Dose 5 (40 μg/kg Dexmedetomidine SL)
[17] = individual animals, Dose 6 (1.5 μg/kg Dexmedetomidine I.V.)
[18] = parenteral dexmedetomidine (1.5 μg/kg, p.o.), compared to vehicle control

## Cc1ccc(-c2nc3ccc(C)cn3c2CC(=O)N(C)C)cc1 [Zolpidem]
[1]
  Latency to Sleep (Mean and SEM): 27.0
  Number of Sleep Episodes (Mean and SEM): 3.83
  Total sleep time normalized to vehicle: 183.8
Zolpidem at the standard dose, compared to NC and Vehicle control
  Total Sleep Time (total duration of sleep in 180 min.), result in words: significant increase
Zolpidem, compared to normal and vehicle control
  Latency to Sleep (Time of sleep onset), result in words: reduction in the sleep latency
[2]
  Latency to Sleep: 27.00
  Number of Sleep Episodes: 3.83
  Total Sleep time Normalized to Vehicle*: 183.82
  Total Sleep time: 87.00 min
[3]
  Latency to Sleep: 24 (2×) and 28 and 26 and 23 and 37
  Number of Sleep Episodes: 3 (3×) and 6 and 4 (2×)
  Total Sleep time Normalized to Vehicle*: 247 and 260 and 167 and 205 and 114 and 110
  Total Sleep time: 117 min and 123 min and 79 min and 97 min and 54 min and 52 min

## Cc1cccc([C@H](C)c2cnc[nH]2)c1C [Dexmedetomidine, 5-[(1 S)-1-(2,3-dimethylphenyl)ethyl]-1 H-imidazole]
[4]
  Latency to Sleep (Mean and SEM): 63.2
  Number of Sleep Episodes (Mean and SEM): 2.33
  Total Sleep Time (Mean and SEM): 100.7
Table 2, Dose 2 (10 μg/kg, SL)
  Latency to Sleep (Mean and SEM): 21.0
  Number of Sleep Episodes (Mean and SEM): 4.50
  Total Sleep Time (Mean and SEM): 130.1
Table 2, Dose 3 (20 μg/kg, SL)
  Latency to Sleep (Mean and SEM): 12.7
  Number of Sleep Episodes (Mean and SEM): 4.00
  Total Sleep Time (Mean and SEM): 150.2
Table 2, Dose 4 (30 μg/kg, SL)
  Latency to Sleep (Mean and SEM): 13.2
  Number of Sleep Episodes (Mean and SEM): 2.50
  Total Sleep Time (Mean and SEM): 143.1
Table 2, Dose 5 (40 μg/kg, SL)
  Latency to Sleep (Mean and SEM): 16.7
  Number of Sleep Episodes (Mean and SEM): 2.67
  Total Sleep Time (Mean and SEM): 169.7
[5]
  Latency to Sleep (Mean and SEM): 25.4
  Number of Sleep Episodes (Mean and SEM): 2.33
  Total Sleep Time (Mean and SEM): 137
Dexmedetomidine dosed sublingually at 10, 20, 30 & 40 μg/kg, compared to vehicle control
  Latency to Sleep (Time of sleep onset), result in words: significantly lowered; also recorded: significantly reduced
Dexmedetomidine dosed sublingually, from 10, 20, 30 & 40 μg/kg, compared to vehicle control
  Number of sleep episodes, result in words: gradually decreased
[6]
  Latency to Sleep: 63.17
  Number of Sleep Episodes: 2.33
  Total Sleep time Normalized to Vehicle*: 100.71
  Total Sleep time: 47.67 min
[7]
  Latency to Sleep: 21.00
  Number of Sleep Episodes: 4.50
  Total Sleep time Normalized to Vehicle*: 130.13
  Total Sleep time: 103.67 min
[8]
  Latency to Sleep: 12.67
  Number of Sleep Episodes: 4.00
  Total Sleep time Normalized to Vehicle*: 150.21
  Total Sleep time: 119.67 min
[9]
  Latency to Sleep: 13.17
  Number of Sleep Episodes: 2.50
  Total Sleep time Normalized to Vehicle*: 143.10
  Total Sleep time: 114.00 min
[10]
  Latency to Sleep: 16.67
  Number of Sleep Episodes: 2.67
  Total Sleep time Normalized to Vehicle*: 169.67
  Total Sleep time: 135.17 min
[11]
  Latency to Sleep: 25.40
  Number of Sleep Episodes: 2.33
  Total Sleep time Normalized to Vehicle*: 136.98
  Total Sleep time: 64.83 min
[12]
  Latency to Sleep: 97 and 101 and 87 and 94 and 0 (2×)
  Number of Sleep Episodes: 2 (2×) and 5 (2×) and 0 (2×)
  Total Sleep time Normalized to Vehicle*: 184 and 203 and 125 and 93 and 0 (2×)
  Total Sleep time: 87 min and 96 min and 59 min and 44 min and 0 min (2×)
[13]
  Latency to Sleep: 18 (2×) and 29 and 21 and 24 and 16
  Number of Sleep Episodes: 5 (4×) and 4 and 3
  Total Sleep time Normalized to Vehicle*: 128 and 102 and 108 and 141 and 152 and 151
  Total Sleep time: 102 min and 81 min and 86 min and 112 min and 121 min and 120 min
[14]
  Latency to Sleep: 15 (2×) and 12 and 13 and 10 and 11
  Number of Sleep Episodes: 5 and 3 and 4 (4×)
  Total Sleep time Normalized to Vehicle*: 133 and 174 and 143 and 142 and 181 and 128
  Total Sleep time: 106 min and 139 min and 114 min and 113 min and 144 min and 102 min
[15]
  Latency to Sleep: 11 (2×) and 23 and 8 and 10 and 16
  Number of Sleep Episodes: 4 and 2 (4×) and 3
  Total Sleep time Normalized to Vehicle*: 162 and 127 and 158 (2×) and 136 and 118
  Total Sleep time: 129 min and 101 min and 126 min (2×) and 108 min and 94 min
[16]
  Latency to Sleep: 16 (2×) and 17 and 18 and 13 and 20
  Number of Sleep Episodes: 2 (3×) and 4 and 3 (2×)
  Total Sleep time Normalized to Vehicle*: 181 and 134 and 186 and 190 and 159 and 168
  Total Sleep time: 144 min and 107 min and 148 min and 151 min and 127 min and 134 min
[17]
  Latency to Sleep: 18 and 27 and 26 and 24 and 85 and 32
  Number of Sleep Episodes: 3 (3×) and 1 and 2 (2×)
  Total Sleep time Normalized to Vehicle*: 180 and 184 and 95 and 129 and 177 and 57
  Total Sleep time: 85 min and 87 min and 45 min and 61 min and 84 min and 27 min
[18]
  Latency to Sleep (Time of sleep onset), result in words: significantly lowered
  Number of sleep episodes, result in words: gradually decreased
Sublingual dexmedetomidine at dose range of 10 to 40 μg/kg
  Total sleep time, result in words: no significant increase; also recorded: not significantly affecting
Sublingual dexmedetomidine, 40 μg/kg
  Total Sleep Time (total duration of sleep in 180 min.), result in words: significant increase
